Test results reported in patent publication US8648201B2, “Aminopyridine derivatives for treating tumors and inflammatory diseases” (MERCK PATENT GmbH, priority 2009, dated 2014).

Legend:
Format in all cases: biochemical
Conditions in all cases: enzyme
IRAK-4 = target: T1, IRAK-4 (Homo sapiens, UniProt Q9NWZ3); test: Test for the inhibition of IRAK4 (flashplate, 33P-ATP)
T1 construct: His6 (N); Dr.Jaekel
T1 sequence (Q9NWZ3 1-460): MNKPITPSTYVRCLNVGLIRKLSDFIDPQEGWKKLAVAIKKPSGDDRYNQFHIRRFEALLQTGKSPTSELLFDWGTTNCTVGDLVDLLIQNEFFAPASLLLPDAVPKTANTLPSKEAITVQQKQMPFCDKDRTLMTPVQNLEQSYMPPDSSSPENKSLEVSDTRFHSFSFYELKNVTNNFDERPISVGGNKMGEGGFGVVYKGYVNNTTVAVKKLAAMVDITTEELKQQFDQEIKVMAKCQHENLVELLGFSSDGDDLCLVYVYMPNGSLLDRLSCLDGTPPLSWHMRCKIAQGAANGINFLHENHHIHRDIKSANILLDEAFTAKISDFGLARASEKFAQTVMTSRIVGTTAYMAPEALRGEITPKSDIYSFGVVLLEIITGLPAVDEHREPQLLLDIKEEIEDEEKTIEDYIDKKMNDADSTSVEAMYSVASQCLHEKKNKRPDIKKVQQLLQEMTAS
Method: (§1) The experimental batches are carried out in a flashplate system with 384 wells/microtitre plate. In each case, the IRAK4 sample His6-IRAK4 (7.3 nM), the biotinylated substrate peptide STK substrate 1-biotin (Cisbio Bioassays, France) (300 nM), 10 μM ATP (with 0.25 μCi of ^33P-ATP/well) and the test substance in 50 μl of conventional experimental solution per well are incubated at 22° C. for 180 min. The test substances are employed in corresponding concentrations (if desired in a dilution series). The control is carried out without test substance. The reaction is stopped using standard methods and washed. The activity of the kinase is measured via the incorporated radioactivity in top count. In order to determine the non-specific kinase reaction (blank value), the experimental batches are carried out in the presence of 1 μM staurosporin. The radioactivity (decompositions per minute) of the blank value (no use of test substance in the presence of 1 μM staurosporin) is subtracted from all other radioactivity values. The controls (kinase activity without test substance) are set equal to 100 percent and all other radioactivity values (after subtracting the blank value) are expressed set in relation thereto (for example in % of the control). IC50 values (50% inhibition) are determined with the aid of statistics programs, such as, for example, RS1.

IRAK-1 = target: T2, IRAK-1 (Homo sapiens, UniProt P51617); test: Test for the inhibition of IRAK1 (autophosphorylation, flashplate)
T2 construct: His6 (N); Dr.Jaekel Pool B, 232Y08C1.IRK
Method: as §1, with “case, in order to investigate” for “case,”, “inhibition of the autophosphorylation activity of IRAK1, the IRAK1” for “IRAK4”, “His6-IRAK1 (5.1” for “His6-IRAK4 (7.3”, “1” for “the biotinylated substrate peptide STK substrate 1-biotin (Cisbio Bioassays, France) (300 nM), 10”

PDK1 = target: T3, PDK1 (Homo sapiens, UniProt O15530); test: Test for the inhibition of PDK1 (flashplate, 33P-ATP)
T3 construct: His6 (N)
T3 sequence (O15530 51-556 limits assumed): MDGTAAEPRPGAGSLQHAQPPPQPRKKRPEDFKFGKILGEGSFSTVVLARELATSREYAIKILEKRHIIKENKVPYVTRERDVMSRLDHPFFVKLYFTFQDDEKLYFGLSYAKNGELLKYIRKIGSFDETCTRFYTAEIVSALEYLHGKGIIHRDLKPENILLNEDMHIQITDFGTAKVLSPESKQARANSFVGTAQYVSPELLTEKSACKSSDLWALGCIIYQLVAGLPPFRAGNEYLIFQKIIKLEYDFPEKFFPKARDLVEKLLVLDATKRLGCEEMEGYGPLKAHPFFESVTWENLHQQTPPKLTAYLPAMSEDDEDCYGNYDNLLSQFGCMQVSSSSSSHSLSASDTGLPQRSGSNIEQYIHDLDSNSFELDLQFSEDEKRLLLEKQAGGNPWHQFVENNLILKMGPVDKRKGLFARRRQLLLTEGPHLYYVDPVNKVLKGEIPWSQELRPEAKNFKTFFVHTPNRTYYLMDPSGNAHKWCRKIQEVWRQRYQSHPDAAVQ
Method: The experimental batches are carried out in a flashplate system with 384 wells/microtitration plate.
In each case, the PDK1 sample His6-PDK1(1-50)(3.4 nM), the PDK1 substrate biotin-bA-bA-[…] (400 nM), 4 μM ATP (with 0.2 μCi of ^33P-ATP/well) and the test substance in 50 μl of conventional experimental solution per well are incubated at 30° C. for 60 min. The test substances are employed in corresponding concentrations (if desired in a dilution series). The control is carried out without test substance. The reaction is stopped using standard methods and washed. The activity of the kinase is measured via the incorporated radioactivity in top count. In order to determine the non-specific kinase reaction (blank value), the experimental batches are carried out in the presence of 100 nM staurosporin.
The radioactivity (decompositions per minute) of the blank value (no use of test substance in the presence of staurosporin) is subtracted from all other radioactivity values. The controls (kinase activity without test substance) are set equal to 100 percent and all other radioactivity values (after subtracting the blank value) are expressed set in relation thereto (for example in % of the control).
IC50 values (50% inhibition) are determined with the aid of statistics programmes, such as, for example, RS1.

T2 sequence (P51617 whole entry, species assumed): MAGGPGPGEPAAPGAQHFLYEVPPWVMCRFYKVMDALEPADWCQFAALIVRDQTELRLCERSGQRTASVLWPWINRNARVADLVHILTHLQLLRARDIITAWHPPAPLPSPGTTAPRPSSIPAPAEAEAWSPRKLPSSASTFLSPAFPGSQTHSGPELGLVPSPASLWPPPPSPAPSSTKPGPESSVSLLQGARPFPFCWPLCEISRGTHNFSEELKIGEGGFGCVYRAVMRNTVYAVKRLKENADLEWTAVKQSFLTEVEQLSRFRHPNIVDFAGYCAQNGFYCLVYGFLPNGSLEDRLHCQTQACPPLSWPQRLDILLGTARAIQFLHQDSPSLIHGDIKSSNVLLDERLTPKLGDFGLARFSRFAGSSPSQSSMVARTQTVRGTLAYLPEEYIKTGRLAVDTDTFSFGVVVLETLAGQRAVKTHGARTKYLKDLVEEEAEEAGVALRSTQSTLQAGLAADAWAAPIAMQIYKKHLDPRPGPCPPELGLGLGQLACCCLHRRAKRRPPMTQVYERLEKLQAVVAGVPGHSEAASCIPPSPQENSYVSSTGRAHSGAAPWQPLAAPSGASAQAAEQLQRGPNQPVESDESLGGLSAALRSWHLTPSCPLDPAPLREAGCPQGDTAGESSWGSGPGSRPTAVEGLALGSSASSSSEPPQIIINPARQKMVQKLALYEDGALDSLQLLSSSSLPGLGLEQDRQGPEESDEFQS

| Structure (SMILES) | IC50 (IRAK-4) | IC50 (IRAK-1) | IC50 (PDK1) |
| --- | --- | --- | --- |
| COCCNC(=O)c1ccc(-c2cnc(N)c(-c3nc4ccc(OC)cc4[nH]3)c2)s1 [Compound A130, N-(2-methoxyethyl)-5-[6-amino-5-(6-methoxy-1H-benzimidazol-2-yl)pyridin-3-yl]thiophene-2-carboxamide] | 0.001 to 0.1 µM | 0.001 to 0.1 µM | – |
| Nc1ncc(-c2cnn(C3CCNCC3)c2)cc1-c1nc2cc3[nH]c(=O)[nH]c3cc2[nH]1 [Compound A55] | – | – | 0.001 to 0.1 µM |
| CC1CC(=O)NN=C1c1ccc2[nH]c(-c3cc(-c4cnn(C5CCNCC5)c4)cnc3N)nc2c1 (centres unmarked) [Compound A17, 6-{2-[2-amino-5-(1-piperidin-4-yl-1H-pyrazol-4-yl)-pyridin-3-yl]-1H-benzimidazol-5-yl}-5-methyl-4,5-dihydro-2H-pyridazin-3-one] | – | – | 0.001 to 0.1 µM |
| Nc1ccc(-c2cnc(N)c(-c3nc4ccccc4[nH]3)c2)cn1 [Compound A35] | 0.1 to 10 µM | 0.1 to 10 µM | – |
| Cc1cccc2nc(-c3cc(-c4cnn(CCN5CCOCC5)c4)cnc3N)[nH]c12 [Compound A48] | 0.1 to 10 µM | 0.1 to 10 µM | – |
| Nc1ncc(-c2cnn(C3CCNCC3)c2)cc1-c1nc2ccc(F)cc2[nH]1 [Compound A50] | 0.001 to 0.1 µM | 0.1 to 10 µM | – |
| Nc1ncc(-c2cnn(C3CCNCC3)c2)cc1-c1nc2ccc(Cl)cc2[nH]1 [Compound A70] | 0.001 to 0.1 µM | 0.1 to 10 µM | – |
| Cn1cc(-c2cnc(N)c(-c3nc4c(F)cc(F)cc4[nH]3)c2)cn1 [Compound A76] | > 10 µM | 0.1 to 10 µM | – |
| Cc1cc(Cl)cc2nc(-c3cc(-c4cnn(C5CCNCC5)c4)cnc3N)[nH]c12 [Compound A72] | 0.1 to 10 µM | 0.1 to 10 µM | – |
| COc1cc2nc(-c3cc(-c4cnn(C5CCNCC5)c4)cnc3N)[nH]c2cc1OC [Compound A66] | 0.1 to 10 µM | 0.1 to 10 µM | – |
| Nc1ncc(-c2cnn(C3CCNCC3)c2)cc1-c1nc2ccccc2[nH]1 [Compound A114, 3-(1H-Benzimidazol-2-yl)-5-(1-piperidin-4-yl-1H-pyrazol-4-yl)pyridin-2-ylamine] | 0.001 to 0.1 µM | 0.1 to 10 µM | – |
| Cn1cc(-c2cnc(N)c(-c3nc4ccc(-c5ccc(=O)[nH]n5)cc4[nH]3)c2)cn1 [Compound A8, 6-{2-[2-Amino-5-(1-methyl-1H-pyrazol-4-yl)-pyridin-3-yl]-3H-benzimidazol-5-yl}-2H-pyridazin-3-one] | 0.1 to 10 µM | 0.1 to 10 µM | – |
| Cc1cccc2nc(-c3cc(-c4cnn(C)c4)cnc3N)[nH]c12 [Compound A42] | 0.1 to 10 µM | 0.1 to 10 µM | – |
| COc1ccc2nc(-c3cc(-c4cnn(CCCN(C)C)c4)cnc3N)[nH]c2c1 [Compound A96, 5-[1-(3-Dimethylaminopropyl)-1H-pyrazol-4-yl]-3-(6-methoxy-1H-benzimidazol-2-yl)pyridin-2-ylamine] | 0.1 to 10 µM | 0.1 to 10 µM | – |
| Cn1cc(-c2cnc(N)c(-c3nc4cc(CC(N)=O)ccc4[nH]3)c2)cn1 [Compound A120, 2-{2-[2-amino-5-(1-methyl-1H-pyrazol-4-yl)pyridin-3-yl]-1H-benzimidazol-5-yl}acetamide] | – | – | 0.001 to 0.1 µM |
| Nc1ncc(-c2ccncc2)cc1-c1nc2ccccc2[nH]1 [Compound A32] | 0.1 to 10 µM | 0.1 to 10 µM | – |
| Nc1ncc(-c2cnn(C3CCNCC3)c2)cc1-c1nc2cc(S(N)(=O)=O)ccc2[nH]1 [Compound A62] | 0.1 to 10 µM | 0.1 to 10 µM | – |
| CC1CC(=O)NN=C1c1ccc2[nH]c(-c3cc(-c4cnn(CC(=O)O)c4)cnc3N)nc2c1 (centres unmarked) [Compound A24, (4-{6-amino-5-[5-(4-methyl-6-oxo-1,4,5,6-tetrahydropyridazin-3-yl)-1H-benzimidazol-2-yl]pyridin-3-yl}pyrazol-1-yl)acetic acid] | – | – | 0.001 to 0.1 µM |
| Cn1cc(-c2cnc(N)c(-c3nc4ccc(CCN)cc4[nH]3)c2)cn1 [Compound A64] | – | – | 0.001 to 0.1 µM |
| COc1cc2[nH]c(-c3cc(-c4cnn(CC(=O)N5CCCCC5)c4)cnc3N)nc2cc1F [Compound A30, 2-{4-[6-amino-5-(5-fluoro-6-methoxy-1H-benzimidazol-2-yl)pyridin-3-yl]pyrazol-1-yl}-1-piperidin-1-ylethanone] | 0.1 to 10 µM | 0.001 to 0.1 µM | – |
| CC1CC(=O)NN=C1c1ccc2[nH]c(-c3cc(-c4cnn(CC(=O)N(C)C)c4)cnc3N)nc2c1 (centres unmarked) [Compound A25, 2-(4-{6-amino-5-[5-(4-methyl-6-oxo-1,4,5,6-tetrahydropyridazin-3-yl)-1H-benzimidazol-2-yl]pyridin-3-yl}pyrazol-1-yl)-N,N-dimethylacetamide] | – | – | 0.001 to 0.1 µM |
| Cn1cc(-c2cnc(N)c(-c3nc4ccccc4[nH]3)c2)cn1 [Compound A34] | 0.1 to 10 µM | 0.1 to 10 µM | – |
| Cn1cc(-c2cnc(N)c(-c3nc4cc5cn[nH]c5cc4[nH]3)c2)cn1 [Compound A115, 3-(1,7-Dihydroimidazo[4,5-f]indazol-6-yl)-5-(1-methyl-1H-pyrazol-4-yl)pyridin-2-ylamine] | 0.1 to 10 µM | 0.1 to 10 µM | – |
| CC1CC(=O)NN=C1c1ccc2[nH]c(-c3cc(-c4cnn(CC(=O)N5CCN(C)CC5)c4)cnc3N)nc2c1 (centres unmarked) [Compound A26, 6-[2-(2-Amino-5-{1-[2-(4-methylpiperazin-1-yl)-2-oxoethyl]-1H-pyrazol-4-yl}-pyridin-3-yl)-1H-benzimidazol-5-yl]-5-methyl-4,5-dihydro-2H-pyridazin-3-one] | – | – | 0.001 to 0.1 µM |
| CC(O)(c1ccccc1)c1ccc2[nH]c(-c3cc(-c4cnn(CCN5CCOCC5)c4)cnc3N)nc2c1 (centres unmarked) [Compound A150, 1-(2-{2-Amino-5-[1-(2-morpholin-4-ylethyl)-1H-pyrazol-4-yl]pyridin-3-yl}-1H-benzimidazol-5-yl)-1-phenylethanol] | – | – | 0.1 to 10 µM |
| CCn1cc(-c2cnc(N)c(-c3nc4ccc(OC)cc4[nH]3)c2)cn1 [Compound A105, 5-(1-Ethyl-1H-pyrazol-4-yl)-3-(6-methoxy-1H-benzimidazol-2-yl)pyridin-2-ylamine] | 0.1 to 10 µM | 0.1 to 10 µM | – |
